In patent publication US20200308170A1, “KRAS G12C INHIBITORS” (Mirati Therapeutics, Inc., priority 2017, published 2020):

Each molecule was assayed against T1, KRas G12C (Homo sapiens, UniProt P01116, C118S/C51S/C80L/G12C) (assay: KRas G12C Modification Assay (LCMS detection of covalent adduct)). Conditions: 5 μM concentration for 3 hours; LC/MS of intact protein; higher POC = higher degree of modification.
T1 construct: GDP-loaded K-Ras (1-169) G12C, C51S, C80L, C118S
Type: binding
Method: A 10 μL aliquot of each protein solution was then transferred to a 384 well microtiter plate. Initial compound stocks were generated at fifty times their desired final assay concentration in DMSO.
Exemplary compounds of Formula (II) were diluted 25-fold into K-Ras Assay Buffer to a final of two times their final concentration. A 10 μL aliquot of each diluted compound solution was then added to each of the protein solutions in the microtiter plate to initiate reaction. […] At each time point, the reactions were quenched with 20 μL of a 25 mM acetic acid solution. […] Once all reactions were quenched, the plates were heat sealed and the samples were injected into a LC/MS system for data acquisition.
Samples were injected in their liquid phase onto a C-3 reverse phase column to remove assay buffer and prepare the samples for mass spectrometer. The proteins were eluted from the column using an acetonitrile gradient and fed directly into the mass analyzer. Initial raw data analysis took place in Agilent MassHunter software immediately post data acquisition.
Raw data analysis of the intact protein was exclusively a deconvolution of the multiple charge states of each protein in solution using a maximum entropy deconvolution provided in Mass Hunter. To minimize complexity, only the data over limited mass ranges were considered for analysis, with a minimum of one Dalton mass step intervals. The heights of all masses identified during raw data analysis were exported to be further analyzed in Spotfire® data analysis software.
Final data analysis was a multistep process in the Spotfire® data analysis software package. Briefly, each protein mass was calculated as a percent of the total signal of that sample, that percentage was then normalized to the percentage of signal of the protein in the absence of reactive compounds. Those normalized signals were reported as normalized percent of control (POC). […] Key: “A”≤25% POC; “B”>25% POC−≤50% POC; “C”>50% POC and ND=not determined.

Row | Compound | POC (normalized percent of control; degree of covalent modification of KRas G12C)
1 | Cc1cccc(N2CCc3c(nc(OC[C@@H]4CCCN4C)nc3N3CCN(C(=O)/C=C/C(F)(F)F)[C@@H](CC#N)C3)C2)c1C [Example 15, 2-((S)-4-(7-(2,3-dimethylphenyl)-2-(((S)-1-methylpyrrolidin-2-yl)methoxy)-5,6,7,8-tetrahydropyrido[3,4-d]pyrimidin-4-yl)-1-((E)-4,4,4-trifluorobut-2-enoyl)piperazin-2-yl)acetonitrile] | C (“C”>50% POC)
2 | C=C(C(=O)N1CCN(c2nc(OC[C@@H]3CCCN3C)nc3c2CCN(c2cccc(C)c2C)C3)C[C@@H]1CC#N)C(F)(F)F [Example 16, 2-((S)-4-(7-(2,3-dimethylphenyl)-2-(((S)-1-methylpyrrolidin-2-yl)methoxy)-5,6,7,8-tetrahydropyrido[3,4-d]pyrimidin-4-yl)-1-(2-(trifluoromethyl)acryloyl)piperazin-2-yl)acetonitrile] | A (“A”≤25% POC)
3 | C=C(CO)C(=O)N1CCN(c2nc(OC[C@@H]3CCCN3C)nc3c2CCN(c2cccc(C)c2C)C3)C[C@@H]1CC#N [Example 17, 2-((S)-4-(7-(2,3-dimethylphenyl)-2-(((S)-1-methylpyrrolidin-2-yl)methoxy)-5,6,7,8-tetrahydropyrido[3,4-d]pyrimidin-4-yl)-1-(2-(hydroxymethyl)acryloyl)piperazin-2-yl)acetonitrile] | B (“B”>25% POC−≤50% POC)
4 | COC/C=C/C(=O)N1CCN(c2nc(OC[C@@H]3CCCN3C)nc3c2CCN(c2cccc(C)c2C)C3)C[C@@H]1CC#N [Example 18, 2-((S)-4-(7-(2,3-dimethylphenyl)-2-(((S)-1-methylpyrrolidin-2-yl)methoxy)-5,6,7,8-tetrahydropyrido[3,4-d]pyrimidin-4-yl)-1-((E)-4-methoxybut-2-enoyl)piperazin-2-yl)acetonitrile] | C (“C”>50% POC)
5 | CN1CCC[C@H]1COc1nc2c(c(N3CCN(C(=O)/C=C/C(F)(F)F)[C@@H](CC#N)C3)n1)CCN(c1cccc3cccc(Cl)c13)C2 [Example 19, 2-((S)-4-(7-(8-chloronaphthalen-1-yl)-2-(((S)-1-methylpyrrolidin-2-yl)methoxy)-5,6,7,8-tetrahydropyrido[3,4-d]pyrimidin-4-yl)-1-((E)-4,4,4-trifluorobut-2-enoyl)piperazin-2-yl)acetonitrile] | C (“C”>50% POC)
6 | Cc1cccc2cccc(N3CCc4c(nc(OC[C@@H]5CCCN5C)nc4N4CCN(C(=O)/C=C/C(F)(F)F)[C@@H](CC#N)C4)C3)c12 [Example 20, 2-((S)-4-(7-(8-methylnaphthalen-1-yl)-2-(((S)-1-methylpyrrolidin-2-yl)methoxy)-5,6,7,8-tetrahydropyrido[3,4-d]pyrimidin-4-yl)-1-((E)-4,4,4-trifluorobut-2-enoyl)piperazin-2-yl)acetonitrile] | C (“C”>50% POC)
7 | C=C(C(=O)N1CCN(c2nc(OC[C@@H]3CCCN3C)nc3c2CCN(c2cccc4cccc(C)c24)C3)C[C@@H]1CC#N)C(F)(F)F [Example 21, 2-((S)-4-(7-(8-methylnaphthalen-1-yl)-2-(((S)-1-methylpyrrolidin-2-yl)methoxy)-5,6,7,8-tetrahydropyrido[3,4-d]pyrimidin-4-yl)-1-(2-(trifluoromethyl)acryloyl)piperazin-2-yl)acetonitrile] | A (“A”≤25% POC)
8 | Cc1cccc2cccc(N3CCc4c(nc(OC[C@@H]5CCCN5C)nc4N4CCN(C(=O)/C=C/c5ccccn5)[C@@H](CC#N)C4)C3)c12 [Example 22, 2-((S)-4-(7-(8-methylnaphthalen-1-yl)-2-(((S)-1-methylpyrrolidin-2-yl)methoxy)-5,6,7,8-tetrahydropyrido[3,4-d]pyrimidin-4-yl)-1-((E)-3-(pyridin-2-yl)acryloyl)piperazin-2-yl)acetonitrile] | C (“C”>50% POC)
9 | Cc1cccc2cccc(N3CCc4c(nc(OC[C@@H]5CCCN5C)nc4N4CCN(C(=O)/C=C/c5cnn(C)c5)[C@@H](CC#N)C4)C3)c12 [Example 23, 2-((S)-1-((E)-3-(1-methyl-1H-pyrazol-4-yl)acryloyl)-4-(7-(8-methylnaphthalen-1-yl)-2-(((S)-1-methylpyrrolidin-2-yl)methoxy)-5,6,7,8-tetrahydropyrido[3,4-d]pyrimidin-4-yl)piperazin-2-yl)acetonitrile] | C (“C”>50% POC)
10 | Cc1cccc2cccc(N3CCc4c(nc(OC[C@@H]5CCCN5C)nc4N4CCN(C(=O)/C=C/C(F)F)[C@@H](CC#N)C4)C3)c12 [Example 24, 2-((S)-1-((E)-4,4-difluorobut-2-enoyl)-4-(7-(8-methylnaphthalen-1-yl)-2-(((S)-1-methylpyrrolidin-2-yl)methoxy)-5,6,7,8-tetrahydropyrido[3,4-d]pyrimidin-4-yl)piperazin-2-yl)acetonitrile] | C (“C”>50% POC)
11 | Cc1cccc2cccc(N3CCc4c(nc(OC[C@@H]5CCCN5C)nc4N4CCN(C(=O)C5=CC(=O)CC5)[C@@H](CC#N)C4)C3)c12 [Example 26, 2-((S)-4-(7-(8-methylnaphthalen-1-yl)-2-(((S)-1-methylpyrrolidin-2-yl)methoxy)-5,6,7,8-tetrahydropyrido[3,4-d]pyrimidin-4-yl)-1-(3-oxocyclopent-1-ene-1-carbonyl)piperazin-2-yl)acetonitrile] | C (“C”>50% POC)
12 | Cc1cccc2cccc(N3CCc4c(nc(OC[C@@H]5CCCN5C)nc4N4CCN(C(=O)/C=C/CCl)[C@@H](CC#N)C4)C3)c12 [Example 27, 2-((S)-1-((E)-4-chlorobut-2-enoyl)-4-(7-(8-methylnaphthalen-1-yl)-2-(((S)-1-methylpyrrolidin-2-yl)methoxy)-5,6,7,8-tetrahydropyrido[3,4-d]pyrimidin-4-yl)piperazin-2-yl)acetonitrile] | C (“C”>50% POC)

Continued, values first:

Row | POC (normalized percent of control; degree of covalent modification of KRas G12C) | Compound
13 | C (“C”>50% POC) | Cc1cccc2cccc(N3CCc4c(nc(OC[C@@H]5CCCN5C)nc4N4CCN(C(=O)/C=C/C(=O)N(C)C)[C@@H](CC#N)C4)C3)c12 [Example 28, (E)-4-((S)-2-(cyanomethyl)-4-(7-(8-methylnaphthalen-1-yl)-2-(((S)-1-methylpyrrolidin-2-yl)methoxy)-5,6,7,8-tetrahydropyrido[3,4-d]pyrimidin-4-yl)piperazin-1-yl)-N,N-dimethyl-4-oxobut-2-enamide]
14 | C (“C”>50% POC) | Cc1cccc2cccc(N3CCc4c(nc(OC[C@@H]5CCCN5C)nc4N4CCN(C(=O)/C=C/C(N)=O)[C@@H](CC#N)C4)C3)c12 [Example 29, (E)-4-((S)-2-(cyanomethyl)-4-(7-(8-methylnaphthalen-1-yl)-2-(((S)-1-methylpyrrolidin-2-yl)methoxy)-5,6,7,8-tetrahydropyrido[3,4-d]pyrimidin-4-yl)piperazin-1-yl)-4-oxobut-2-enamide]
15 | C (“C”>50% POC) | Cc1cccc2cccc(N3CCc4c(nc(OC[C@@H]5CCCN5C)nc4N4CCN(C(=O)/C=C/C#N)[C@@H](CC#N)C4)C3)c12 [Example 30, (E)-4-((S)-2-(cyanomethyl)-4-(7-(8-methylnaphthalen-1-yl)-2-(((S)-1-methylpyrrolidin-2-yl)methoxy)-5,6,7,8-tetrahydropyrido[3,4-d]pyrimidin-4-yl)piperazin-1-yl)-4-oxobut-2-enenitrile]
16 | C (“C”>50% POC) | Cc1cccc2cccc(N3CCc4c(nc(OC[C@@H]5CCCN5C)nc4N4CCN(C(=O)/C=C\C#N)[C@@H](CC#N)C4)C3)c12 [Example 31, (Z)-4-((S)-2-(cyanomethyl)-4-(7-(8-methylnaphthalen-1-yl)-2-(((S)-1-methylpyrrolidin-2-yl)methoxy)-5,6,7,8-tetrahydropyrido[3,4-d]pyrimidin-4-yl)piperazin-1-yl)-4-oxobut-2-enenitrile]
17 | C (“C”>50% POC) | CN(C)C/C=C(/F)C(=O)N1CCN(c2nc(OC[C@@H]3CCCN3C)nc3c2CCN(c2cccc4cccc(Cl)c24)C3)C[C@@H]1CC#N [Example 32, 2-[(2S)-4-[7-(8-chloro-1-naphthyl)-2-[[(2S)-1-methylpyrrolidin-2-yl]methoxy]-6,8-dihydro-5H-pyrido[3,4-d]pyrimidin-4-yl]-1-[(E)-4-(dimethylamino)-2-fluoro-but-2-enoyl]piperazin-2-yl]acetonitrile]
18 | C (“C”>50% POC) | C=C(C(=O)N1CCN(c2nc(OC[C@@H]3CCCN3C)nc3c2CCN(c2cccc4cccc(Cl)c24)C3)C[C@@H]1CC#N)C(F)(F)F [Example 33, 2-[(2S)-4-[7-(8-chloro-1-naphthyl)-2-[[(2S)-1-methylpyrrolidin-2-yl]methoxy]-6,8-dihydro-5H-pyrido[3,4-d]pyrimidin-4-yl]-1-[2-(trifluoromethyl)prop-2-enoyl]piperazin-2-yl]acetonitrile]
